From patent US5336758A, “Peptides stimulating cytotoxic T cells immune to HIV RT” (The United States of America as represented by the …, priority 1990, dated 1994)

Test system: L-cells
Format: cell-based, murine
Conditions: spontaneous lysis and cell recovery in presence of peptide alone (data not shown)
From the text: Identification of the immunodominant epitope recognized by the line Pol a: To identify the epitope(s) contained in this area, we used 21 overlapping 15-amino acid peptides designated HP134 to HP154 covering residues 168 to 316. […] HP138 ([…]) corresponds to residues 205-219 of the HTLV/IIIB strain sequence (32). […] The line Pol a was Class I MHC-restricted because it killed HP 138-pulsed, Class II MHC molecule-negative H-2^k L-cell fibroblasts, but not 3T3 fibroblasts (H-2^d) or EL4 thymoma cells (H-2^b).

SMILES: CC[C@H](C)[C@H](NC(=O)[C@H](CCCCN)NC(=O)[C@H](CO)NC(=O)[C@@H](NC(=O)[C@H](CCCCN)NC(=O)CNC(=O)[C@H](CCC(=O)O)NC(=O)[C@H](CCCCN)NC(=O)[C@H](CCC(=O)O)NC(=O)[C@H](CCSC)NC(=O)[C@H](CCC(=O)O)NC(=O)[C@@H](NC(=O)[C@@H](N)CS)[C@@H](C)O)[C@@H](C)CC)C(=O)NCC(=O)N1CCC[C@H]1C(=O)O [HP138]
- toxicity of the peptide by itself: not toxic by itself
